Source: paper PMC4854315, “Discovery of a novel allosteric inhibitor-binding site in ERK5: comparison with the canonical kinase hinge ATP-binding site” (Acta Crystallographica. Section D, Structural Biology, 2016)

Tests used:
Assay in all cases: Z'-LYTE kinase panel
Format in all cases: biochemical
[1] = molecular target: T1, PDGFRB (PDGFR beta) (Homo sapiens, UniProt P09619)
T1 construct: purchased ThermoFisher (SelectScreen, Z'-LYTE)
Outline: (§1)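 A panel of 225 kinases is tested by Z′-LYTE under the standard protocol, with compounds at 10 µM and results given as percentage inhibition.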

[2] = molecular target: T2, KIT (Homo sapiens, UniProt P10721)
T2 construct: purchased ThermoFisher (SelectScreen, Z'-LYTE)
Outline: as §1

[3] = molecular target: T3, STK22B (TSSK2) (Homo sapiens, UniProt Q96PF2)
T3 construct: purchased ThermoFisher (SelectScreen, Z'-LYTE)
T3 sequence (Q96PF2 1-358): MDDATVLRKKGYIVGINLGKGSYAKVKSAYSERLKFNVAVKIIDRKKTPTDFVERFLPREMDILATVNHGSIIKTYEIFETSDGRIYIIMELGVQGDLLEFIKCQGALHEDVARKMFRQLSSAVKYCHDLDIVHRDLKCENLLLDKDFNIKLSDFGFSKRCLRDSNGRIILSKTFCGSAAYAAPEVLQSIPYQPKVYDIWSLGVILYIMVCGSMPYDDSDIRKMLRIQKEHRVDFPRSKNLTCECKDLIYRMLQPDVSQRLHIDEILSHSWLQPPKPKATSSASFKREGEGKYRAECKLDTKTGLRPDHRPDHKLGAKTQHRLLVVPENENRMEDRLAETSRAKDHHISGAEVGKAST
Outline: as §1

[4] = molecular target: T4, PHKG2 (Homo sapiens, UniProt P15735)
T4 construct: purchased ThermoFisher (SelectScreen, Z'-LYTE)
T4 sequence (P15735 1-406): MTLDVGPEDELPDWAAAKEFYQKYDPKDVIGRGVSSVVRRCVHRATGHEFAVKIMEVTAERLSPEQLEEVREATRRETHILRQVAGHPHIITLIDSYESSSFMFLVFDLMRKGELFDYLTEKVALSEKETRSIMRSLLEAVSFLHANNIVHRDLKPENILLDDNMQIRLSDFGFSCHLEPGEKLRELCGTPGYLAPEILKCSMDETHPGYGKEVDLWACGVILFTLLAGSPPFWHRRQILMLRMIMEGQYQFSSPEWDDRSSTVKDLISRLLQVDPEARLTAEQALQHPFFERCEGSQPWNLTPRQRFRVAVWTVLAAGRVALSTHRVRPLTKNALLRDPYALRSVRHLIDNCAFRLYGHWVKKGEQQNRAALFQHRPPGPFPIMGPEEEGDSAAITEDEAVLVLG
Outline: as §1

[5] = molecular target: T5, SRPK2 (Homo sapiens, UniProt P78362)
T5 construct: purchased ThermoFisher (SelectScreen, Z'-LYTE)
Outline: as §1

[6] = molecular target: T6, CLK3 (Homo sapiens, UniProt P49761)
T6 construct: purchased ThermoFisher (SelectScreen, Z'-LYTE)
Outline: as §1

[7] = molecular target: T7, CDK5/p35 (Homo sapiens, UniProt Q00535)
T7 construct: purchased ThermoFisher (SelectScreen, Z'-LYTE)
Outline: as §1

[8] = molecular target: T8, PRKG1 (Homo sapiens, UniProt Q13976)
T8 construct: purchased ThermoFisher (SelectScreen, Z'-LYTE)
T8 sequence (Q13976 1-671): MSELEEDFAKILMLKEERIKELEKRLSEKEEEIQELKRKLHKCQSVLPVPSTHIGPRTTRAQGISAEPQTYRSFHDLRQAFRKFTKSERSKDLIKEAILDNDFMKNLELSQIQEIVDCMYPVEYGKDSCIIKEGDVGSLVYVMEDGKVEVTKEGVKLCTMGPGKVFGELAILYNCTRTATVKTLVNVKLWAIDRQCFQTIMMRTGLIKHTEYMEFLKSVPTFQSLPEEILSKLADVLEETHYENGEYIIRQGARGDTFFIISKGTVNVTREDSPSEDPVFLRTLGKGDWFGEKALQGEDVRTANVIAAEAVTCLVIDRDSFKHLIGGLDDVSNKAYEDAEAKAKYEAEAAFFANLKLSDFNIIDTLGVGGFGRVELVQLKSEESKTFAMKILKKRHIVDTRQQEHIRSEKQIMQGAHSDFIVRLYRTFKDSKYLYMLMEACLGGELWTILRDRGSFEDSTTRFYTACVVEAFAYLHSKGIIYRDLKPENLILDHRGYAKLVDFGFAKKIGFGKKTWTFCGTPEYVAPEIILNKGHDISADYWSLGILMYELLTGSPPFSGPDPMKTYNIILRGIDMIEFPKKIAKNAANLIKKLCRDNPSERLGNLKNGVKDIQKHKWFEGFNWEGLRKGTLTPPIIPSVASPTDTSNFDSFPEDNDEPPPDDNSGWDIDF
Outline: as §1

[9] = molecular target: T9, CDK2/cyclin A (Homo sapiens, UniProt P24941)
T9 construct: purchased ThermoFisher (SelectScreen, Z'-LYTE)
Outline: as §1

[10] = molecular target: T10, NEK2 (Homo sapiens, UniProt P51955)
T10 construct: purchased ThermoFisher (SelectScreen, Z'-LYTE)
T10 sequence (P51955 1-445): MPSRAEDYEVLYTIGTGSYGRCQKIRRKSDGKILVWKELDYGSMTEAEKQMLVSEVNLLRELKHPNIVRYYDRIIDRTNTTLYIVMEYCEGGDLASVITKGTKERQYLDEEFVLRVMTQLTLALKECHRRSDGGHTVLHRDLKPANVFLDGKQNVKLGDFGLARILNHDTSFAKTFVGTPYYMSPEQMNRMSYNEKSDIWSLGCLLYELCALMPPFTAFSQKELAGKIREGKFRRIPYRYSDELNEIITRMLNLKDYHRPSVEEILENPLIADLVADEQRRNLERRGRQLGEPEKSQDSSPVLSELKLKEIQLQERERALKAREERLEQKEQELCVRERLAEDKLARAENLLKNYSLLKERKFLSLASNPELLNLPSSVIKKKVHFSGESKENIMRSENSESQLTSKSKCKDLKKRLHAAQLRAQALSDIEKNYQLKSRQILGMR
Outline: as §1

[11] = molecular target: T11, JAK2 (Homo sapiens, UniProt O60674)
T11 construct: purchased ThermoFisher (SelectScreen, Z'-LYTE)
Outline: as §1

T6 sequence (P49761 whole entry): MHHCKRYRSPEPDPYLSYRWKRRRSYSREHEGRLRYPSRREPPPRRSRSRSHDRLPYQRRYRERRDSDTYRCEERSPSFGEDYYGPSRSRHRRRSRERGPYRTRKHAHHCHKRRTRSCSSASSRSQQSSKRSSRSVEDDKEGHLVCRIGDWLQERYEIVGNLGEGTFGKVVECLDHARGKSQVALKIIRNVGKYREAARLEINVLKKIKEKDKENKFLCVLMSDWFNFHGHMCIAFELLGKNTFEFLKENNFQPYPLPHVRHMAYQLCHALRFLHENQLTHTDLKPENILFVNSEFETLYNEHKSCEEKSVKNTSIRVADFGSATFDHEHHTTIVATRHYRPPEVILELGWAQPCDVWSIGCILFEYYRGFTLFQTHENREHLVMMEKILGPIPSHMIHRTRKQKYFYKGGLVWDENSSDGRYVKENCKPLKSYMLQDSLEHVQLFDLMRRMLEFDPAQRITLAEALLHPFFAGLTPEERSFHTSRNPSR
T2 sequence (P10721 26-976): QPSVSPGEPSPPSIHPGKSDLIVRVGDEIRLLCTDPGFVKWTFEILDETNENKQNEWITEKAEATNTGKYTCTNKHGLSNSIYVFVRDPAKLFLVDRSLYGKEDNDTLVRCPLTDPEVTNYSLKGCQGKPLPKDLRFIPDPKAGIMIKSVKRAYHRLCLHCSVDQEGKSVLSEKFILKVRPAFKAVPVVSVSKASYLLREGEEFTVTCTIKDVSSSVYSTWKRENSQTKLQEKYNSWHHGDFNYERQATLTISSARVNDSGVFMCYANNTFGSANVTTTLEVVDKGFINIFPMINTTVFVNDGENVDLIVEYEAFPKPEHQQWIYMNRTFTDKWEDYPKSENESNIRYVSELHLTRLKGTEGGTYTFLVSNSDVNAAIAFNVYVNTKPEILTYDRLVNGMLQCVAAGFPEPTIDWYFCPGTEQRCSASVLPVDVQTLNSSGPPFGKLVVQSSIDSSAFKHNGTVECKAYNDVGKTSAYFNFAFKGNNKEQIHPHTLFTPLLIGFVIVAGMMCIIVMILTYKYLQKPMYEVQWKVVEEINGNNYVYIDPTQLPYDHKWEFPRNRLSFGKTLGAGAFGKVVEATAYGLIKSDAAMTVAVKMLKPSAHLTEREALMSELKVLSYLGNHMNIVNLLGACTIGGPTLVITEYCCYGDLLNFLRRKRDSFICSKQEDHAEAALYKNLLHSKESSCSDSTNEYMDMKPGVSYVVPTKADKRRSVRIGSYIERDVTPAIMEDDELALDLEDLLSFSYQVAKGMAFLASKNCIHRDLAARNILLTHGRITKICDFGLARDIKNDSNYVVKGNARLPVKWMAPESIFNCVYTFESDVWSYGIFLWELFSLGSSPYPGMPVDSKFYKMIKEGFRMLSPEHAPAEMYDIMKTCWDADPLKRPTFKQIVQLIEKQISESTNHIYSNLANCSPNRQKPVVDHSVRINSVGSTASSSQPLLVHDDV
T11 sequence (O60674 whole entry): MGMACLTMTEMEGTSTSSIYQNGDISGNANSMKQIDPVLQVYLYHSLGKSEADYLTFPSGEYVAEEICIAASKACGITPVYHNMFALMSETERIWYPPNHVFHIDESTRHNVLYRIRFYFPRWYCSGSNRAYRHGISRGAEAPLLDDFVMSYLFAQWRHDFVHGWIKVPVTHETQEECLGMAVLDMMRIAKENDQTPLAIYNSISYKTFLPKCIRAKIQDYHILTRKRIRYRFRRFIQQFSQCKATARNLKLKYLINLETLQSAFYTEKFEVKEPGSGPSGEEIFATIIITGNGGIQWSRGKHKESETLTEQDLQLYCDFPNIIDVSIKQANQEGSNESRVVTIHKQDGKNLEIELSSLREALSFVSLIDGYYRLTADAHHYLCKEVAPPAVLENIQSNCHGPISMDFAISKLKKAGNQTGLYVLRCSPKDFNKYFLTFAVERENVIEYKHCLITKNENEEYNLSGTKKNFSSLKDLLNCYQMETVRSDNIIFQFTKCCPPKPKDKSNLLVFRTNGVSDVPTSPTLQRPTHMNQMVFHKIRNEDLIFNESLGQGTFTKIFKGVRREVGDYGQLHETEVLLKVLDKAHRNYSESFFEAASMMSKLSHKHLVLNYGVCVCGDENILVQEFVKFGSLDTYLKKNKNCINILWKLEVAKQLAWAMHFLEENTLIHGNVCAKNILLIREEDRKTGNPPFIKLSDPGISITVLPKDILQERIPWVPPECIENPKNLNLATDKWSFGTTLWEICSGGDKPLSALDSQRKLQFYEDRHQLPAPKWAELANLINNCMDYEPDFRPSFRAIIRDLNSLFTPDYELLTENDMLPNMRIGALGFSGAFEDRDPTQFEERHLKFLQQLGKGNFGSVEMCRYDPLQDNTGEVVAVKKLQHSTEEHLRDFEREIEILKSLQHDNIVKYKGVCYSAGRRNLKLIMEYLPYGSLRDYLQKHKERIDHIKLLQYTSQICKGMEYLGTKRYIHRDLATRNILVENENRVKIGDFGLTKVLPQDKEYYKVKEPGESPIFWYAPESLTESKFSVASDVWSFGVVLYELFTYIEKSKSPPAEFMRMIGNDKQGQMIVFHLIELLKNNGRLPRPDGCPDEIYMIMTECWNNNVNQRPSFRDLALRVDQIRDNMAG
T5 sequence (P78362 whole entry): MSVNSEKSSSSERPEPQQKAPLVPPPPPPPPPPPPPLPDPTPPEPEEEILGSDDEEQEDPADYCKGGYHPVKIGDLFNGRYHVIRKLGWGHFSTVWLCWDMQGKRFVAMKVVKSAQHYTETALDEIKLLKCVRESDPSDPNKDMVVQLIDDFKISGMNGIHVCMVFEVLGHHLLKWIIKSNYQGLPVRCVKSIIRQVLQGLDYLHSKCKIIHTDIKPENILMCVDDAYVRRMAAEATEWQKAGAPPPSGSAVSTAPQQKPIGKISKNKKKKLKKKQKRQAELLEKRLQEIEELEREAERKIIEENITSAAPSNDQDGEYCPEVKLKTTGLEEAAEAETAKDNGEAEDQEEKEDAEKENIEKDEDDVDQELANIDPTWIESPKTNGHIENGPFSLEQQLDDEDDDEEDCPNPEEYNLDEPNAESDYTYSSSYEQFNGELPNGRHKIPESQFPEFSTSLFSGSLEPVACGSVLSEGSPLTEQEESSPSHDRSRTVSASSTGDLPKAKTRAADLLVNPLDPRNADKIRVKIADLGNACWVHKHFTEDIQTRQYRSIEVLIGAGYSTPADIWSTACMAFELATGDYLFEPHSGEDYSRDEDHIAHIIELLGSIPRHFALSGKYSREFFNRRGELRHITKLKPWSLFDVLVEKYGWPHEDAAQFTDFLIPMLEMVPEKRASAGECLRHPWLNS
T7 sequence (Q00535 whole entry): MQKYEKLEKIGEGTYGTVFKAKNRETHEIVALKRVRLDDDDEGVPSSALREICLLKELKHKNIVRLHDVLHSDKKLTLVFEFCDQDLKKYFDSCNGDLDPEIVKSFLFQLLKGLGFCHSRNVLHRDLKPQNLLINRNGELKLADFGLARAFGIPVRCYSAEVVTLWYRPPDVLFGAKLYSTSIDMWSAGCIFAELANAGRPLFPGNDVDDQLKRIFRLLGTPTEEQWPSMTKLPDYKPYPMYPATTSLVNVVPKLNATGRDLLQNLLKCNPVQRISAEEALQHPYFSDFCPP
T7 sequence (Q15078 whole entry partner): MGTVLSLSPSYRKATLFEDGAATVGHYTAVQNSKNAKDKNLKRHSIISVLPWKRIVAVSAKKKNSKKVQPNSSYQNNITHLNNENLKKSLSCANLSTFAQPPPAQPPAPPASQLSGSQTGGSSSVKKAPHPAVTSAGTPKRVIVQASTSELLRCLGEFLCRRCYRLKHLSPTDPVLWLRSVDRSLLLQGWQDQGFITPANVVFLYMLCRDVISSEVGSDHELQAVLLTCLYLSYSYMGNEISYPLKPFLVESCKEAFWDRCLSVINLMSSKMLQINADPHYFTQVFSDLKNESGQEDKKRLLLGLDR
T1 sequence (P09619 33-1106): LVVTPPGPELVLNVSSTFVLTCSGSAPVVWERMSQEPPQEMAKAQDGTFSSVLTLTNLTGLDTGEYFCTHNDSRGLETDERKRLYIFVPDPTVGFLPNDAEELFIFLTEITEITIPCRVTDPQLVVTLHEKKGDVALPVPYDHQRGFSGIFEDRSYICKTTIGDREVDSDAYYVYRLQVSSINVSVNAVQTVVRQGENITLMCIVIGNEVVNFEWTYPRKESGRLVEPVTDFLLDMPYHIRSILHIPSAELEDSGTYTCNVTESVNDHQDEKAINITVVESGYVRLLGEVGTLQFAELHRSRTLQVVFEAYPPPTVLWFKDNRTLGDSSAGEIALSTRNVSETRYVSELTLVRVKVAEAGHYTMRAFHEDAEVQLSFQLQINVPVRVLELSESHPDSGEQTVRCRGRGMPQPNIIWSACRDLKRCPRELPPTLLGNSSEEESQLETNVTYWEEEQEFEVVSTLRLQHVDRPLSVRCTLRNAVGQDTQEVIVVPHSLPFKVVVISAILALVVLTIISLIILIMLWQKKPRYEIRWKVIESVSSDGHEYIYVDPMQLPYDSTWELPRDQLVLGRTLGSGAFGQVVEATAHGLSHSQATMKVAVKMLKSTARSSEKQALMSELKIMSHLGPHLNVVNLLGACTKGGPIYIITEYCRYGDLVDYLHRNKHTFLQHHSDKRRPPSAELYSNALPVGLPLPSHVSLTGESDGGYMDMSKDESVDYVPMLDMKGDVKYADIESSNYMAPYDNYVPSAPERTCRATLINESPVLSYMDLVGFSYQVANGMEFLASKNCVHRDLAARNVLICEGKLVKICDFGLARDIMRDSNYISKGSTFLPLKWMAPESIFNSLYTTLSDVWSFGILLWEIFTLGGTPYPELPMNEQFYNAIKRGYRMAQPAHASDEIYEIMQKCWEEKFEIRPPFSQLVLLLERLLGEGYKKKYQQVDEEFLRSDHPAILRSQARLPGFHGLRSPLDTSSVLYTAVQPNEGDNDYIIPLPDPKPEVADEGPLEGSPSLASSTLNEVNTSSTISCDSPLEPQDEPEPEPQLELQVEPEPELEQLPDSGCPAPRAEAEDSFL

| Compound | inhibition at 10 µM [1] [%] | inhibition at 10 µM [2] [%] | inhibition at 10 µM [3] [%] | inhibition at 10 µM [4] [%] | inhibition at 10 µM [5] [%] | inhibition at 10 µM [6] [%] | inhibition at 10 µM [7] [%] | inhibition at 10 µM [8] [%] | inhibition at 10 µM [9] [%] | inhibition at 10 µM [10] [%] | inhibition at 10 µM [11] [%] | other results |
| --- | --- | --- | --- | --- | --- | --- | --- | --- | --- | --- | --- | --- |
| XMD8-92 [Compound 2, reference compound] |  |  |  |  |  |  |  |  |  |  |  | PDGFRB (PDGFR beta) % Inhibition ([1]; 10 µM compound, ATP Km app): 7%; KIT % Inhibition ([2]; 10 µM compound, ATP Km app): -5.51%; STK22B (TSSK2) % Inhibition ([3]; 10 µM compound, ATP Km app): -0.837%; PHKG2 % Inhibition ([4]; 10 µM compound, ATP Km app): 19%; SRPK2 % Inhibition ([5]; 10 µM compound, ATP Km app): -19%; CLK3 % Inhibition ([6]; 10 µM compound, ATP Km app): 5.55%; CDK5/p35 % Inhibition ([7]; 10 µM compound, ATP Km app): 77%; PRKG1 % Inhibition ([8]; 10 µM compound, ATP Km app): 10%; CDK2/cyclin A % Inhibition ([9]; 10 µM compound, ATP Km app): 20%; NEK2 % Inhibition ([10]; 10 µM compound, ATP Km app): -17%; JAK2 % Inhibition ([11]; 10 µM compound, ATP Km app): 95% |
| Cc1ncc(-c2nc(Nc3ccc(C(=O)NCCN4CCCCC4)cc3)ncc2F)n1C(C)C [Compound 3] | 87 | 31 | -7 | 79 | 25 | 71 | 106 | 80 | 101 | -7.52 | 92 |  |
| Cc1cc(Nc2nc(N)nn2C(=O)NC(C)C)ccc1Cl [Compound 5] | 10 | 11 | -10 | -2.57 | -5 | 12 | 71 | -4 | 56 | -3 | 66 |  |
